{"source": "patent US7741529B1", "about": "“Transgenic animal model for catecholaminergic polymorphic ventricular tachycardia (CPVT) and use thereof” (priority 2006, dated 2010)", "assay_type_in_all_cases": "in vivo, mouse", "key": {"WT mice": {"test_system": "WT mice", "test": "ECG radiotelemetry: effect of betablockers on RR interval in WT mice"}, "RyR2^+/RyR^R4496C mice [1]": {"test_system": "RyR2^+/RyR^R4496C mice", "test": "Epinephrine and caffeine arrhythmia induction after propranolol pretreatment (continuous ECG monitoring)", "experimental": "Arrhythmias were defined as follows: non sustained ventricular tachycardia (VTns) was defined as a series of 4 to 10 consecutive repetitive ventricular ectopic beats (VEBs), sustained VT (VTsust) was defined as a run of >10 consecutive VEBs, ventricular fibrillation (VF) was defined as a VTsust degenerating into ventricular fibrillation leading to sudden death.\n(§1) ECG radiotelemetry monitors (Data Sciences International) were implanted intraabdominally under general anaesthesia (Avertin […]). Body temperature was maintained at 37° C. by use of a thermally controlled heating pad (Harvard Apparatus). ECG was continuously monitored starting 48 h after surgery. After 72 hours of recovery from surgery phenotype characterization was performed.\n(§2) One group (Group 1) of animals exercised on a treadmill until exhaustion. The animals were then injected with epinephrine 2 mg/kg i.p. (WT n=12, RyR2^+/RyR^R4496C n=14). A second group of animals (Group 2) was injected with epinephrine (2 mg/kg ip) and caffeine (120 mg/kg i.p.) (WT, n=8, RyR2^+/RyR^R4496C, n=7). ECG monitoring was performed continuously during both exercise and drug testing protocols. Five additional RyR2^+/RyR^R4496C animals were treated for 24 hours with propranolol i.p. (2 mg/Kg) every 12 hours before being exposed to the epinephrine and caffeine protocol.\nAmong the RyR2^+/RyR^R4496C mice 4/8 or 50% developed sustained arrhythmias (VTsust n=2; FIG. 4 panel B and VF n=2; FIG. 5 panel B p=0.02 versus WT; Table I).\n(§3) Five RyR2^+/RyR^R4496C mice were treated with propranolol to evaluate if antiadrenergic compounds could prevent induction of arrhythmias. After drug administration we observed a prolongation of RR interval from 94.5±13 to 118±13 msec […] (p<0.001). […] Despite pretreatment with betablockers, the administration of caffeine and epinephrine elicited VTsust in 2 and VF in 2 (sustained arrhythmias in 4 mice); only one mouse had no arrhythmias (p=0.56; i.e. non significant versus RyR2+/RyR^R4496C mice)."}, "RyR2^+/RyR^R4496C mice [2]": {"test_system": "RyR2^+/RyR^R4496C mice", "test": "ECG radiotelemetry: effect of propranolol on RR and QT interval in RyR2+/RyRR4496C mice", "experimental": "The cardiac activity in transgenic animals is preferably measured by continuous ECG monitoring. ECG radiotelemetry monitors (Data Sciences International) are typically implanted intraabdominally under general anaesthesia. After recovery from surgery the electrocardiographic signal is recorded continuously in conscious animal kept in special cages provided with receivers and connected to a A/D converted an a PC for data storage. Off-line analyses of stored ECGs parameters comprise: quantification of arrhythmias, heart rate trends, heart rate variability assessment (power spectrum analysis), QT interval and T wave assessments. Other parameters of cardiac functionality measurable by ECG are the following: baseline QT interval (measured using the tangent method^23), RR interval, RR variability.\nas §1, §2, §3"}, "[3]": {"details": "5 pretreated mice, epinephrine 2 mg/kg i.p. and caffeine 120 mg/kg i.p."}, "[4]": {"details": "Group 2, N=5, epinephrine and caffeine i.p."}}, "note": "Marks after values point to notes of the source that are not given here."}
{"compound": "CC(C)NCC(O)COc1cccc2ccccc12", "note": "(stereo not shown) [propranolol]", "values": [{"measurement": "percentage of RR change after betablockers (Δ%=ΔRR*100/RR baseline)", "setting": "WT mice; WT mice", "result": "27±5", "unit": "%"}, {"measurement": "mean prolongation of RR interval", "setting": "WT mice; WT mice after betablockers", "result": "22.92 ± 3.6", "unit": "ms"}, {"measurement": "number of mice with VF", "setting": "RyR2^+/RyR^R4496C mice [1]; [3]", "result": 2}, {"measurement": "number of mice with VTsust", "setting": "RyR2^+/RyR^R4496C mice [1]; [3]", "result": 2}, {"measurement": "number of mice with no arrhythmias", "setting": "RyR2^+/RyR^R4496C mice [1]; 5 pretreated mice, epinephrine and caffeine", "result": "one"}, {"measurement": "sustained arrhythmias (number of mice)", "setting": "RyR2^+/RyR^R4496C mice [1]; 5 pretreated mice, epinephrine and caffeine, p=0.56 versus untreated RyR2+/RyR^R4496C mice", "result": 4, "unit": "mice"}, {"measurement": "All VT/VF (sum of animals experiencing VTns or VTsust or VF)", "setting": "RyR2^+/RyR^R4496C mice [1]; [4]", "result": 4}, {"measurement": "VTns (number of animals)", "setting": "RyR2^+/RyR^R4496C mice [1]; [4]", "result": 0}, {"measurement": "VTsust & VF (number of animals)", "setting": "RyR2^+/RyR^R4496C mice [1]; [4]", "result": 4}, {"measurement": "prevention of arrhythmias (in words)", "setting": "RyR2^+/RyR^R4496C mice [1]; RyR2^+/RyR^R4496C mice", "result": "not effective in preventing arrhythmias"}, {"measurement": "Baseline RR", "setting": "RyR2^+/RyR^R4496C mice [2]; Group 2, N=5, beta blockade, p=0.0001 vs untreated RyR2^+/RyR^R4496C", "result": "121 + 23*"}, {"measurement": "Baseline QT", "setting": "RyR2^+/RyR^R4496C mice [2]; Group 2, N=5, beta blockade, tangent method, ANOVA P=0.966", "result": "23 + 0.2§"}, {"measurement": "RR interval (in words)", "setting": "RyR2^+/RyR^R4496C mice [2]; RyR2^+/RyR^R4496C animals pretreated with betablockers, Group 2", "result": "significantly prolonged"}, {"measurement": "mean prolongation of RR interval", "setting": "RyR2^+/RyR^R4496C mice [2]; RyR2^+/RyR^R4496C mice after betablockers, p=0.69 vs WT", "result": "23.62 ± 0.14", "unit": "ms"}, {"measurement": "percentage of RR change after betablockers (Δ%=ΔRR*100/RR baseline)", "setting": "RyR2^+/RyR^R4496C mice [2]; RyR2^+/RyR^R4496C mice, p=0.52 vs WT", "result": "25±3", "unit": "%"}, {"measurement": "RR interval after drug administration", "setting": "RyR2^+/RyR^R4496C mice [2]; five RyR2^+/RyR^R4496C mice, propranolol i.p. 2 mg/Kg every 12 hours for 24 hours, prolongation from 94.5±13, p<0.001", "result": "118 ± 13", "unit": "ms"}]}
